Row | Compound | melting point [°C]
1 | Nc1nc(Cl)nc2c1ncn2[C@@H]1S[C@H](CO)[C@@H](O)[C@H]1O | 220 to 222
2 | Cc1cc(C(=O)CBr)cn1S(=O)(=O)c1ccccc1 | 86 to 88
3 | CCCN(CCC)C(=O)n1ccc(S(=O)(=O)c2c(C)cc(C)cc2C)n1 | 64 to 65
4 | CC(C)(C)C(=O)OCCn1nc(-c2cc(C(C)(C)C)c(O)c(C(C)(C)C)c2)c2cccnc21 | 85 to 87
5 | CC1COC(c2nsc3ccc(-n4c(=O)cc(C(F)(F)F)n(C)c4=O)cc23)O1 (stereo unspecified) | 81 to 83
6 | O=C(NC=CCc1cn(C2CC(O)C(CO)O2)c(=O)[nH]c1=O)C(F)(F)F (stereo unspecified) | 183 to 184
7 | O=c1[nH]c2ccc(Cl)cc2n1C1CCCCC1 | 206 to 208
8 | CN1CCN(Cc2cc(-c3ccc4c(c3)CCO4)nn(CC3CC3)c2=O)CC1 | 128 to 130
9 | O=C(O)C#CC(=O)c1ccc2c(c1)OCO2 | 122 to 124
10 | Cc1cc2ccccn2c1C(=O)C1CCc2nc[nH]c2C1 (stereo unspecified) | 260 to 264
11 | CC(NS(=O)(=O)c1ccc(Cl)cc1)P(=O)(OCCCl)OCCCl (stereo unspecified) | 94.5 to 98
12 | CC(=O)SC(C)CNC(=O)c1cc(Cl)cc(C)c1NC(=O)c1cc(C(F)(F)F)nn1-c1ncccc1Cl (stereo unspecified) | 137 to 139
13 | CN(NC(=O)OC(C)(C)C)C(=O)C(C)(C)ON=C(C(=O)O)c1csc(N)n1 | 145
14 | NS(=O)(=O)C(Br)(Br)S(=O)(=O)c1ccc(Br)cc1 | 192
15 | Cc1nc(C)c(C(C)(O)c2cocc2Br)o1 (stereo unspecified) | 124 to 125
16 | CCOCc1nc2c(N)nc3c4c2n1[C@@H](C)CN4CCC3 | 164 to 166
17 | COc1ccc(C(O)CNC(=O)C(N)=O)cc1OC1CCCC1 (stereo unspecified) | 180 to 181
18 | COc1ccc(-c2nc(OC(=O)N(C)C)nn2-c2ccc(OC)cc2)cc1 | 121 to 123
19 | COC(=O)C(=NO)N(C)c1cccc(C(F)(F)F)c1 | 131
20 | CC(C)(O)c1cccc2ccccc12 | 81 to 86
21 | Cn1cc(Cl)c(-n2ccnc2S(N)(=O)=O)n1 | 208 to 210
22 | Cc1cccc2[nH]c3c(c12)CCOC3(C)CC(=O)O (stereo unspecified) | 132 to 134

Row | Compound | melting point [°C]
23 | NC(=O)Nc1ncc(-c2ccncc2)cn1 | > 250
24 | NC(=O)c1sc2nc(N3CCC(NCC(O)c4ccccc4F)CC3)cc(C(F)(F)F)c2c1N (stereo unspecified) | 192 to 194
25 | COc1cc(C(CBr)(OC)OC)ccc1OS(=O)(=O)c1ccccc1 | 134
26 | Cc1cc(-c2cccs2)nc(Nc2ccc(C(C)C)cc2Br)n1 | 98 to 101
27 | Oc1nc2ccc3nsnc3c2nc1O | > 300
28 | COC(=O)CC1(O)CC2CCC1(CS(=O)(=O)N1CCC3(C=Cc4ccccc43)CC1)C2(C)C (stereo unspecified) | 81 to 83
29 | COc1ccc2c3cc(C(=O)NCCc4ccc(Cl)cc4)ccc3n(CC3CCCCC3)c2c1 | 179 to 181
30 | NCC(O)CNC(=O)CCCCCCCCCCCO (stereo unspecified) | 119
31 | CCCc1c(OCCCSc2nnc(SCC(=O)OCC)s2)ccc(C(C)=O)c1O | 71 to 72.5
32 | CCC1CC2C3CCC4=CC(=O)CCC4C3CCC2(C)C1OC(=O)CO (stereo unspecified) | 156 to 157
33 | CC1(C)CC(n2cncc2C(=O)OC2CCCCC2)c2ccccc2O1 (stereo unspecified) | 128
34 | CC(C)(C)c1ccc2c(c1)CCC(CN1CCCCC1)C2=O (stereo unspecified) | 47 to 49
35 | COC(=O)C(C)N(C(=O)CCl)c1c(Cl)cccc1Cl (stereo unspecified) | 82 to 85
36 | CN(C)CC#Cc1ccc(C(CC2CCCC2)C(=O)Nc2nccs2)cc1 (stereo unspecified) | 164 to 167
37 | O=S(=O)(Oc1ccc2ccc(OS(=O)(=O)C(F)(F)F)cc2c1)C(F)(F)F | 60 to 62
38 | CCOc1ccc(-c2ccc(C3(O)CN4CCC3CC4)cc2)cc1 (stereo unspecified) | 199 to 200
39 | OCC1=C(c2cc3c(Cl)cccc3s2)N2CCN=C2S1 | 170 to 172
40 | CN(Cc1ccccc1)C1Cc2cccc3[nH]c(=O)n(c23)C1 (stereo unspecified) | 145 to 149
41 | Cc1cc(=O)[nH]nc1-c1ccccc1 | 125 to 126
42 | COCc1nnc(N)s1 | 177 to 179
43 | CN(C(=O)c1ccc2nonc2c1)C1CCCC(=O)C1 (stereo unspecified) | 164 to 165
44 | Cc1cc(C(=S)Cl)c(Cl)cc1Cl | 94 to 95

More lines, now with the values ahead:

Row | melting point [°C] | Compound
45 | 280 to 284 | N#CN(c1ccccc1)c1nc(N(C#N)c2ccccc2)nc(N(c2ccccc2)c2ccccc2)n1
46 | 94 to 100 | CCCC[C@H](NC(=O)[C@H](CC(C)C)NC(=O)c1ccc(F)c(F)c1)C(=O)CSCc1ccco1
47 | 86 to 88 | O=C(c1ccccc1)c1ccc(SCC(O)CO)cc1 (stereo unspecified)
48 | 158 | CC(C)n1nc(-c2c(-c3ccccc3)nn3ccc(OCCN4C[C@@H](C)O[C@@H](C)C4)cc23)ccc1=O
49 | 113 to 114 | Cc1cc(OCc2coc(/C=C/c3ccc(S(=O)C(F)(F)F)cc3)n2)ccc1CCCCc1c[nH]nn1 (stereo unspecified)
50 | 220 | O=C(NC(Cc1ccc(OCc2ccoc2)cc1)C(=O)O)c1cn2nc(-c3ccc(Cl)cc3)ccc2n1 (stereo unspecified)
51 | 116 to 117 | CCOC(=O)Cc1nc(-c2ccc(F)cc2)oc1-c1cccs1
52 | 227 to 229 | COc1ccc(-c2cc(S(=O)(=O)c3ccc(N)cc3)cc(N3CCCC3)n2)cc1
53 | 188 to 190 | Cc1ccccc1S(=O)(=O)NC(=O)c1ccc2c(ccn2Cc2cccc(NC(=O)OC3CCCC3)c2)c1
54 | 115 to 117 | CC(C)CC1(CC(=O)NOCc2ccccc2)CC(=O)N(CCc2ccccc2)C1=O (stereo unspecified)
55 | 135 to 139 | COc1ccccc1C1(CC(=O)O)C(=O)Nc2ccc(Cl)cc21 (stereo unspecified)
56 | 168 to 170 | CN1CCN(C(=O)Nc2c(C(=O)c3ccccc3)[nH]c3cc(Cl)ccc23)CC1
57 | 124 to 126 | COc1ccc(C(OCC2OC(n3cc(C)c(=O)[nH]c3=O)CC2O)(c2ccccc2)c2ccc(OC)cc2)cc1 (stereo unspecified)
58 | 110 to 112 | O=C(c1ccc(F)cc1Cl)N1Cc2cccn2Cc2ccccc21
59 | 113 to 115 | COc1ccc(/C(=C/C=C/C(=O)Oc2ccc([N+](=O)[O-])cc2)c2cccs2)cc1
60 | 73 | CCOC(=O)Cc1ccc(NCc2cc(Br)ccc2OCc2ccccc2)cc1
61 | 168 to 170 | O=C1C2CCC(C(=O)N2Cc2ccccc2)N1Cc1ccccc1
62 | 165 | COc1ccc(-c2cn(C)cc(-c3ccccc3)c2=O)cc1
63 | 287 to 288 | COc1cc(NC(C)=O)ccc1C=NNC(=N)NN=Cc1ccc(NC(C)=O)cc1OC
64 | 156 | COc1ccc(-c2cc(=O)c3c(OC)cc(OC)cc3o2)cc1
65 | 173 to 175 | O=C(NCc1ccc(F)cc1)c1ccnc(N2CCN(Cc3ccc(F)cc3)C2=O)c1
66 | 55 to 58 | COc1ccc(Oc2cccc3c2C2(COc4cc5c(cc42)OCCO5)C(=O)N3C)cc1 (stereo unspecified)
67 | 223 to 227 | COc1ccccc1N1CCN(CCn2c(=O)[nH]c3ccc(O)c(O)c3c2=O)CC1
68 | 129 to 130 | Cc1oc(-c2ccccc2)nc1COc1ccc(CON=C(CCCC(=O)O)c2ccccc2)cc1
69 | 159 to 160 | O=C(COc1ccccc1)NC1C(=O)N(C(O)(Cc2ccccc2)C(=O)O)C1CI (stereo unspecified)
70 | 189 to 191 | CC(=O)Nc1cccc2c1C(=O)C1(NC(C)=O)c3ccc(C(C)C)cc3OC21O (stereo unspecified)

Row | melting point [°C] | Compound
71 | 89 to 90 | CCCCCCCCCCCCCCCCCCOc1cc(NC(C)=O)cc(N(CC(=O)OCc2ccccc2)CC(=O)OCc2ccccc2)c1
72 | 167 to 168 | COCCNC(=O)c1nc(C)c2cc(Cc3ccc(F)cc3)cnc2c1OCc1ccccc1
73 | 281 to 283 | CC1Cc2cc3c(cc2C(c2ccc([N+](=O)[O-])cc2)=NN1C(=S)NC(=O)NC1CC1)OCO3 (stereo unspecified)
74 | 235 to 255 | COc1ccc(-c2ccc(C(N)=O)cc2)cc1-c1ccc2nonc2c1
75 | 144 to 145 | NCCCN1c2ccccc2N=C(c2ccccc2F)c2ccccc21
76 | 216 to 218 | COc1ccc([C@@H]2Sc3cc(Cc4ccc(F)cc4)ccc3NC(=O)[C@@H]2O)cc1
77 | > 25 | CSc1cc2c(cc1C(F)(F)F)N(C(=O)Nc1ccc(-c3csc(-c4cccnc4)n3)cc1)CC2
78 | 98 to 99 | Fc1ccc(C(c2ccccc2Cl)N2CCN(CCCOC(c3ccccc3)c3ccccc3)CC2)cc1 (stereo unspecified)
79 | > 300 | N#Cc1cc(F)c2ncc(C(=O)NCc3ccc(Cl)cc3)c(O)c2c1
80 | 175 to 179 | CN(C)c1ncc2c(n1)-c1ccc(Cl)cc1C(c1ccccc1F)=NC2
81 | 323 to 325 | O=C1c2cc(F)ccc2-n2c1nc1cccc(F)c1c2=O
82 | 168 to 170 | COc1ccc(NC(=O)NC/C=C2\CCCc3ccc(OC)cc32)cc1
83 | 256 to 258 | COc1ccc2c(Cc3c(Cl)cncc3Cl)nn(CC(=O)NO)c(=O)c2c1
84 | 131 to 133 | CCCN1CCN=C1c1ccccc1C(=O)c1ccc(Cl)cc1
85 | 104 | CC(=O)c1ccc2ccccc2c1OCCCC(=O)O
86 | > 250 | O=C(O)c1cnc2c(NC(=O)c3c(Cl)cccc3Cl)cccc2c1
87 | 97 to 125 | CN(C)Cc1cc(NC(=O)OC(C)(C)C)c(N)cc1-c1ccc(F)cc1
88 | 58 to 60 | CCN(Cc1csc(C(C)C)n1)C(=O)N[C@H](C(=O)N[C@@H](Cc1ccccc1)C[C@H](O)[C@H](Cc1ccccc1)NC(=O)OCc1cncs1)C(C)C
89 | 97 to 98 | Cc1ccc(-c2cc(C(F)(F)F)nn2-c2ccc(S(=O)(=O)Cl)cc2)cc1
90 | 196 to 197 | Cc1c(C(=O)Nc2ccc(N3CCCCC3)c(C#N)c2)cnn1-c1ccc(F)cc1
91 | 82 to 85 | CCOC(=O)C(=O)c1csc(NC(c2ccccc2)c2ccccc2)n1
92 | 84 to 87 | Nc1c(C(=O)c2cccc(C(F)(F)F)c2)[nH]c2cc(Cl)ccc12
93 | 225 to 226 | COc1ccccc1Oc1c(NS(=O)(=O)c2ccc(C)cn2)nc(-c2ccncc2)nc1OC
94 | 97 to 98 | COc1ccc2c(c1)C(C(=O)N(Cc1ccc3c(c1)OCO3)c1ccc(C(C)C)cc1)CCC2 (stereo unspecified)
95 | 157 to 158 | COc1ccc(-c2nc(SC)[nH]c2-c2ccc(OC)cc2)cc1
96 | 92 to 94 | CCCCCc1cnc(N2CCC(c3ccc(COc4ccc(C#N)c(F)c4)nc3)CC2)nc1

— a melting point compilation (Tetko et al.; mined from patent text by program, amines drawn as free bases though some values may be those of a salt)
